Source: patent US9687488B2, “Compositions and methods for increasing neurotrophic peptides” (Saint Louis College of Pharmacy, priority 2012, dated 2017)

Columns and labels:
[1] = tested on: survival motor neuron (SMN) protein in cortical neurons; test: Immunoblotting of SMN protein in cortical neuron cultures; assay type: cell-based, murine; conditions: immunoblot against tubulin (FIG. 6)
Description: (§1) Murein E14-E15 cortices were dissected and removed to Hanks Balanced Salt Solution (HBSS) The tissue was dissociated with 0.05% trypsin in HBSS for 10 min at 37° C., and then filtered through a 70 µm cell strainer. Cells were plated on poly-D-lysine (PDL)-coated plates at −3.2×10^5 cells/cm^2 in CEMEM (10% fetal bovine serum, 10% horse serum, 2 mM L-glutamine, and 1% penicillin/streptomycin) for 45 min in a 37° C. humidified tri-gas incubator (5% CO2 and 5% 02). The medium was changed to Neurobasal medium (Invitrogen, Carlsbad, Calif.) with a B27 supplement (Gibco) containing antioxidants (NB plus AO) to specifically enhance neuronal growth. After 3 days the media were half changed with NB plus AO. All treatments were done at day 5 with complete media change containing vehicle, SAHA (suberoyl anilide hydroxamic acid; Vorinostat), and test compounds at final concentrations ranging from 125 μM to 1 nM for 24 hours.
Culture medium was collected and cells were lysed in lysis buffer containing 50 mM Tris-HCl, pH 7.5, 150 mM sodium chloride, 1% Nonidet P-40, 0.5% sodium deoxycholate, 1 mM sodium orthovanadate, 5 mM sodium fluoride, and a protease inhibitor cocktail. Sample concentrations were determined to ensure equal loading, placed in Laemmli sample buffer containing B-mercaptoethanol, and denatured at 100° C. for 5 min. […]

[2] = tested on: primary cortical neurons; test: MTS cell viability assay; assay type: cell-based, murine; conditions: 24 hours
Description: as §1, with “hours. The MTS non-radioactive cell viability assay employed [3-(4,5-dimethylthiazol-2-yl)-5-(3-carboxymethoxyphenyl)-2-(4-sulfophenyl)-2H-tetrazolium, inner salt with phenazine methosulfate added as an electron coupling reagent, MTS is bioreduced by cells into a formazan product that is soluble in tissue culture medium and can be measured at 490 nm. MTS was performed at 24 hours per manufacturer recommendations (Promega, G5421).” for “hours.”

[3] = tested on: progranulin levels in cortical neuron cultures; test: Dot blot / immunoblotting of progranulin in primary cortical neuron cultures; assay type: cell-based, Murine; conditions: primary cortical neurons, 24 hours; for accumulation of progranulin: dot blot (FIG. 5), repeat triplicate experiments
Description: as §1
Culture medium was collected and cells were lysed in lysis buffer containing 50 mM Tris-HCl, pH 7.5, 150 mM sodium chloride, 1% Nonidet P-40, 0.5% sodium deoxycholate, 1 mM sodium orthovanadate, 5 mM sodium fluoride, and a protease inhibitor cocktail. Sample concentrations were determined to ensure equal loading, placed in Laemmli sample buffer containing B-mercaptoethanol, and denatured at 100° C. for 5 min. Proteins were separated on a 4% stacking and 12% resolving SDS-PAGE Tris-glycine gel, transferred to polyvinylidene difluoride membrane (Millipore), and blocked in 5% instant milk or 5% bovine serum albumin in Tris-buffered saline with 0.1% Tween for 1 hour. For immunoblotting, primary antibodies were incubated overnight at 4° C. with 1/1000 tubulin (Developmental Studies Hybridoma), and 1/1000 Progranulin (ProteinTech Group). 15 μL of media was loaded from each sample. Ponceau red staining on the membrane before immunological probing was used to show equal loading to look for secreted progranulin and survival of motor neurons protein.

`CCN(CC(=O)Nc1ccccc1C)S(=O)(=O)c1ccc(OC)cc1` [Compound 4, 2-(N-ethyl-4-methoxybenzenesulfonamido)-N-(2-methylphenyl) acetamide] was tested, and the “cellular concentration of survival motor neuron (SMN) protein” value [1] was “dramatically increase”.

`COc1ccc(Cl)cc1NC(=O)CS(=O)(=O)c1ccccc1` [Compound 3, 2-(benzenesulfonyl)-N-(5-chloro-2-methoxyphenyl)acetamide] was tested, and the “toxicity to the neurons” value [2] was “apparently nontoxic”, the “effective dose for progranulin accumulation” value [3] was “effective in extremely low doses” and the accumulation of progranulin [3] was “elicited accumulation of progranulin”.

`COc1ccc(-c2c(C)nn3c(=O)cc(Cc4ccccc4)[nH]c23)cc1OC` [Compound 1, 5-benzyl-3-(3,4-dimethoxyphenyl)-2-methyl-4H,7H-pyrazolo[1,5,a]pyrimidin-7-one] was tested, and the “toxicity to the neurons” value [2] was “apparently nontoxic”, the “effective dose for progranulin accumulation” value [3] was “effective in extremely low doses” and the accumulation of progranulin [3] was “elicited accumulation of progranulin”.

With `CC(=O)N(c1ccc(Oc2ccccc2)cc1)C1C=CS(=O)(=O)C1` (centres unmarked) [Compound 2, N-(1,1-dioxo-2,3-dihydro-1-[…]^6-thiophene-3-yl)-N-(4-phenoxyphenyl)acetamide] the “cellular concentration of survival motor neuron (SMN) protein” value [1] was “dramatically increase”.
